Data reported in patent US8829003B2, “Compounds for treating proliferative disorders” (Changzhou Le Sun Pharmaceuticals Limited, priority 2010, dated 2014).

Assays:
cancer cells = experiment: MTT proliferation assay; assay type: cell-based; details: GI50 values only in FIG. 4
Description: C.1. MTT Proliferation Assay.
The compounds from the examples above were subjected to a standard cellular proliferation assay using the method described previously in S. Wang et al. J Med Chem. 2004, 47, 1662-1675. The data analysis used program Deltasoft 3™ and Microsoft Excel to determine GI50 values (concentration of test compound which inhibits cell growth by 50%).

[1] = Mouse pharmacokinetics, IV and oral dosing; details: mice
Experimental: For PK measurements male adult CD1 mice weighing 25-30 g (Charles River) are split into weight matched groups of 3 per group. IV dosed mice were restrained in individual restraining tubes, the tail was warmed in warm water to vasodilate the tail vein, and the IV bolus was then administered via the tail vein. Orally dosed mice were held at the scruff of the neck and dosed via a metal gavage directly into the stomach. Immediately after dosing mice are returned to their cage, plastic box cage with sawdust bedding, and food and water available. Blood samples were collected from the mouse under anaesthesia by cardiac puncture using a 1 mL syringe and 25 gauge needle at time zero and at intervals up to 8 h. Harvested blood was centrifuged at 7000×G for 2 minutes, and the plasma aspirated and frozen at 20° C. until analysis. Quantitative compound level analysis was carried out using LC-MS/MS methods. Pharmacokinetic data derived using PK Solutions 2.0, non-compartmental analysis. Oral bioavailability (% F) was calculated by taking the ratio of dose-normalised AUC values from oral versus parenteral dosing.

[2] = system: HCT-116 human colon cancer cells; experiment: Cell-cycle effects, DNA content by flow cytometry; assay type: cell-based; details: HCT-116 cells, 0.62 μM, 48 hrs
Experimental: HCT-116 human colon cancer cells were treated with DMSO and A.12 at GI50 and […] respectively for a period of 48 hrs. The cells were analysed for their DNA content by flow cytometry.
This further indicates the efficacy of the compounds of the invention.

SMILES | inhibition of cell growth (cancer cells) | pharmacokinetic properties compared with ON01910.Na ([1]; IV and PO) | oral bioavailability (F) ([1]; oral, 10 mg/kg) [%] | apoptosis (sub-G1 cells) [2] | effect on cell cycle progression [2]
COc1cc(OC)c(/C=C/S(=O)(=O)Cc2cnc(OC)c(N)c2)c(OC)c1 [A.10, (E)-2-methoxy-5-((2,4,6-trimethoxystyrylsulfonyl)methyl)pyridin-3-amine] | effectively inhibit cell growth | – | – | – | –
COc1cc(OC)c(/C=C/S(=O)(=O)Cc2cnc(OC)c(NS(C)(=O)=O)c2)c(OC)c1 [A.12, (E)-N-(2-methoxy-5-((2,4,6-trimethoxystyrylsulfonyl)methyl)pyridin-3-yl)methanesulfonamide] | effectively inhibit cell growth | significantly improved pharmacokinetic properties | 56 | increased sub-G1 cells | block of their cell cycle progression in G2/M phase
CCOC(=O)CNc1cc(CS(=O)(=O)/C=C/c2c(OC)cc(OC)cc2OC)cnc1OC [A.13, (E)-ethyl 2-(2-methoxy-5-((2,4,6-trimethoxystyrylsulfonyl)methyl)pyridin-3-ylamino)acetate] | effectively inhibit cell growth | – | – | – | –
COc1cccc(OC)c1/C=C/S(=O)(=O)Cc1cnc(OC)c([N+](=O)[O-])c1 [A.17, (E)-5-((2,6-Dimethoxystyrylsulfonyl)methyl)-2-methoxy-3-nitropyridine] | effectively inhibit cell growth | – | – | – | –
COc1cc(OC)c(/C=C/S(=O)(=O)Cc2ccc(OC)c(N3CCCCC3)n2)c(OC)c1 [A.29, (E)-3-Methoxy-2-(piperidin-9-yl)-6-((2,4,6-trimethoxystyrylsulfonyl)methyl)pyridine] | effectively inhibit cell growth | – | – | – | –
